Reference: PubChem BioAssay (NCI)
Where “and” joins values, the source holds several entries; their conditions need not be identical. Equal values may be shown once.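 Tested at 5 concentrations; 48 h exposure; 96-well plates; endpoints linearly interpolated, else capped at highest concentration. The concentration for 50% growth inhibition is given as GI50. TGI: total growth inhibition.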 Where a SMILES comes first, the peptide text is derived from it. [ ]: non-standard residue; d: D form. 2Nal = N[CH](Cc1ccc2ccccc2c1)C(=O)O

How the values were obtained:
Experiment in all cases: DTP human tumour cell line panel, 48 h
HT29 colon = tested on: HT29 colon
786-0 renal = tested on: 786-0 renal
MCF7 breast = tested on: MCF7 breast
SNB-78 CNS = tested on: SNB-78 CNS
SF-539 CNS = tested on: SF-539 CNS
HCT-116 colon = tested on: HCT-116 colon
CAKI-1 renal = tested on: CAKI-1 renal
SW-620 colon = tested on: SW-620 colon
SN12C renal = tested on: SN12C renal
HL-60(TB) leukemia = tested on: HL-60(TB) leukemia
HOP-18 NSCLC = tested on: HOP-18 NSCLC
SK-MEL-5 melanoma = tested on: SK-MEL-5 melanoma
DLD-1 colon = tested on: DLD-1 colon
SNB-19 CNS = tested on: SNB-19 CNS
EKVX NSCLC = tested on: EKVX NSCLC
UACC-257 melanoma = tested on: UACC-257 melanoma
DU-145 prostate = tested on: DU-145 prostate
NCI-H23 lung = tested on: NCI-H23 lung
HOP-62 NSCLC = tested on: HOP-62 NSCLC
K-562 leukemia = tested on: K-562 leukemia
SK-MEL-2 melanoma = tested on: SK-MEL-2 melanoma
SF-295 CNS = tested on: SF-295 CNS
OVCAR-3 ovarian = tested on: OVCAR-3 ovarian
DMS 273 small cell lung = tested on: DMS 273 small cell lung
MOLT-4 leukemia = tested on: MOLT-4 leukemia
PC-3 prostate = tested on: PC-3 prostate
T-47D breast = tested on: T-47D breast
SK-MEL-28 melanoma = tested on: SK-MEL-28 melanoma
HCC-2998 colon = tested on: HCC-2998 colon
DMS 114 small cell lung = tested on: DMS 114 small cell lung
IGROV1 ovarian = tested on: IGROV1 ovarian
HCT-15 colon = tested on: HCT-15 colon
MDA-MB-231 breast = tested on: MDA-MB-231 breast
RPMI-8226 leukemia = tested on: RPMI-8226 leukemia
SF-268 CNS = tested on: SF-268 CNS
HS 578T breast = tested on: HS 578T breast
ACHN renal = tested on: ACHN renal
XF 498 CNS = tested on: XF 498 CNS
M14 melanoma = tested on: M14 melanoma
OVCAR-8 ovarian = tested on: OVCAR-8 ovarian
LOX IMVI melanoma = tested on: LOX IMVI melanoma
NCI/ADR-RES ovarian = tested on: NCI/ADR-RES ovarian
OVCAR-5 ovarian = tested on: OVCAR-5 ovarian
U251 CNS = tested on: U251 CNS
SK-OV-3 ovarian = tested on: SK-OV-3 ovarian
CCRF-CEM leukemia = tested on: CCRF-CEM leukemia
MDA-MB-435 = tested on: MDA-MB-435
KM20L2 colon = tested on: KM20L2 colon
NCI-H226 lung = tested on: NCI-H226 lung
OVCAR-4 ovarian = tested on: OVCAR-4 ovarian
MALME-3M melanoma = tested on: MALME-3M melanoma
RXF 393 renal = tested on: RXF 393 renal
KM12 colon = tested on: KM12 colon
M19-MEL melanoma = tested on: M19-MEL melanoma
UACC-62 melanoma = tested on: UACC-62 melanoma
A549 NSCLC = tested on: A549 NSCLC
A498 renal = tested on: A498 renal
UO-31 renal = tested on: UO-31 renal
COLO 205 colon = tested on: COLO 205 colon
NCI-H460 lung = tested on: NCI-H460 lung
SNB-75 CNS = tested on: SNB-75 CNS
NCI-H522 lung = tested on: NCI-H522 lung

## CC(NC(=O)C(N)Cc1ccccc1)C(=O)NC(Cc1ccc(O)cc1)C(=O)NC(Cc1c[nH]c2ccccc12)C(=O)NC(CCCCN)C(=O)NC(C(=O)NC(C)C(=O)NC(Cc1ccc2ccccc2c1)C(N)=O)C(C)C (centres undefined) (H-FAYWKVA[2Nal]-NH2; configuration not given here)
HT29 colon
  GI50: 37.1 µM
  TGI: > 100 µM
786-0 renal
  GI50: 24.8 µM
  TGI: > 12.5 µM and 65.1 µM
MCF7 breast
  TGI: > 12.5 µM
SNB-78 CNS
  TGI: > 100 µM
SF-539 CNS
  GI50: 21.8 µM
  TGI: > 12.5 µM and 62.4 µM
HCT-116 colon
  GI50: 33.9 µM
  TGI: > 100 µM
CAKI-1 renal
  TGI: > 12.5 µM and 39.1 µM
SW-620 colon
  TGI: > 12.5 µM
SN12C renal
  GI50: > 100 µM
  TGI: > 100 µM
HL-60(TB) leukemia
  GI50: 18 µM
  TGI: > 12.5 µM and 31.9 µM
HOP-18 NSCLC
  TGI: 46.3 µM
SK-MEL-5 melanoma
  TGI: > 12.5 µM
DLD-1 colon
  TGI: > 100 µM
SNB-19 CNS
  TGI: 71.1 µM
EKVX NSCLC
  GI50: 25.9 µM
  TGI: > 12.5 µM and 81 µM
UACC-257 melanoma
  GI50: > 100 µM
  TGI: > 100 µM
DU-145 prostate
  TGI: > 12.5 µM
NCI-H23 lung
  GI50: 25.7 µM
  TGI: > 12.5 µM and 75.4 µM
HOP-62 NSCLC
  GI50: 23.1 µM
  TGI: > 12.5 µM and 53.5 µM
K-562 leukemia
  GI50: 16.9 µM
  TGI: > 12.5 µM and 30.5 µM
SK-MEL-2 melanoma
  GI50: 25.1 µM
  TGI: > 12.5 µM and 52.1 µM
SF-295 CNS
  TGI: > 12.5 µM
OVCAR-3 ovarian
  GI50: 18.8 µM
  TGI: > 12.5 µM and 43.2 µM
DMS 273 small cell lung
  TGI: 54.1 µM
MOLT-4 leukemia
  GI50: 16.7 µM
  TGI: 32 µM
PC-3 prostate
  TGI: > 12.5 µM
T-47D breast
  TGI: > 12.5 µM
SK-MEL-28 melanoma
  GI50: 53.4 µM
  TGI: > 100 µM
HCC-2998 colon
  GI50: 29.7 µM
  TGI: > 100 µM
DMS 114 small cell lung
  TGI: 92.6 µM
IGROV1 ovarian
  GI50: 24.1 µM
  TGI: > 12.5 µM and 49 µM
HCT-15 colon
  GI50: 22.1 µM
  TGI: > 12.5 µM and 61.8 µM
MDA-MB-231 breast
  TGI: > 12.5 µM
RPMI-8226 leukemia
  GI50: 16.3 µM
  TGI: > 12.5 µM and 30.4 µM
SF-268 CNS
  TGI: > 12.5 µM
HS 578T breast
  TGI: > 12.5 µM
ACHN renal
  GI50: 22.7 µM
  TGI: > 12.5 µM and 52.1 µM
XF 498 CNS
  TGI: 54.9 µM
M14 melanoma
  TGI: > 12.5 µM
OVCAR-8 ovarian
  GI50: 37.2 µM
  TGI: > 100 µM
LOX IMVI melanoma
  TGI: > 12.5 µM
NCI/ADR-RES ovarian
  TGI: > 12.5 µM
OVCAR-5 ovarian
  TGI: > 12.5 µM
U251 CNS
  GI50: 25.1 µM
  TGI: > 12.5 µM and 67 µM
SK-OV-3 ovarian
  TGI: > 12.5 µM
CCRF-CEM leukemia
  GI50: 16 µM
  TGI: > 12.5 µM and 29.4 µM
MDA-MB-435
  TGI: > 12.5 µM
KM20L2 colon
  TGI: 78 µM
NCI-H226 lung
  TGI: > 12.5 µM
OVCAR-4 ovarian
  GI50: 27.2 µM
  TGI: > 12.5 µM and 84.3 µM
MALME-3M melanoma
  TGI: > 12.5 µM
RXF 393 renal
  GI50: 17.7 µM
  TGI: > 12.5 µM and 36.5 µM
KM12 colon
  GI50: 21.9 µM
  TGI: > 12.5 µM and 53.3 µM
M19-MEL melanoma
  TGI: 74 µM
UACC-62 melanoma
  GI50: 26.8 µM
  TGI: > 12.5 µM and 75.7 µM
A549 NSCLC
  GI50: 20.7 µM
  TGI: > 12.5 µM and 48.7 µM
A498 renal
  GI50: 19.4 µM
  TGI: > 12.5 µM and 49.4 µM
UO-31 renal
  GI50: 27.1 µM
  TGI: > 12.5 µM and 58.6 µM
COLO 205 colon
  GI50: 27.1 µM
  TGI: > 12.5 µM and 61.2 µM
NCI-H460 lung
  GI50: 22.7 µM
  TGI: > 12.5 µM and 52.3 µM
SNB-75 CNS
  TGI: 71.8 µM
NCI-H522 lung
  TGI: > 12.5 µM
